In ChEMBL document CHEMBL4033610, “Analogues of the Potent Antitumor Compound Leiodermatolide from a Deep-Water Sponge of the Genus Leiodermatium” (J Nat Prod, 2017):
pIC50: −log10 of the molar value.

Test system: ASPC1
Test: Cytotoxicity against human Aspc-1 cells incubated for 72 hrs by MTT assay
Assay type: functional, cell-based
Conditions: ASPC1, 72 h

Compound | pIC50
CC[C@@H]1OC(=O)C[C@@H](C/C=C/C=C(\C)[C@H]2OC(=O)CC/C=C(\C)[C@@H](C)[C@H](O)[C@H](C)[C@@H](OC(N)=O)/C=C\C=C/[C@@H]2C)[C@H]1C | 7.37
CC[C@@H]1OC(=O)C[C@@](O)(C/C=C/C=C(\C)[C@H]2OC(=O)CC/C=C(\C)[C@@H](C)[C@H](O)[C@H](C)[C@@H](OC(N)=O)/C=C\C=C/[C@@H]2C)[C@H]1C | 7.34
C=C1[C@@H](C)[C@H](O)[C@H](C)[C@@H](OC(N)=O)/C=C\C=C/[C@H](C)[C@@H](/C(C)=C/C=C/C[C@]2(O)CC(=O)O[C@@H](CC)[C@@H]2C)OC(=O)CC[C@H]1OO | 5.43
